In article PMC12136991 (ACS chemical neuroscience, 2025):
Converted amounts (≈) assume the structure as drawn. “Also recorded” adds a separate entry of the source.

Assays:
[1] = Kinetic solubility assay; format: physicochemical; conditions: kinetic from dmso stock
[2] = Multi-point microsome stability assay, human; format: in vitro ADME; conditions: both, human microsomal fractions, pH 7.4
[3] = biological target: T1, human κ-opioid receptor (OPRK1) (Homo sapiens, UniProt P41145); assay: Forskolin-induced cAMP accumulation assay, KOR antagonist mode
[4] = Multi-point microsome stability assay, mouse; format: in vitro ADME; conditions: male, CD-1, mouse, mouse microsomal fractions, pH 7.4
[5] = Multi-point cytosol stability assay, human; format: in vitro ADME; conditions: human cytosol fractions, pH 7.4
[6] = biological target: T2, human δ-opioid receptor (OPRD1) (Homo sapiens, UniProt P41143); assay: Forskolin-induced cAMP accumulation assay, DOR antagonist mode; conditions: for DOR Antagonist %Imax ± SEM: versus EC50 of SNC80, normalized to naltrexone
[7] = Multi-point cytosol stability assay, mouse; format: in vitro ADME; conditions: mouse cytosol fractions, pH 7.4
[8] = biological target: T3, mouse mu opioid receptor (mMOR-CHO) (Mus musculus, UniProt P42866); assay: [35S]GTPγS functional assay, mMOR-CHO membranes; format: biochemical
[9] = tested on: mice; conditions: administered before IP 0.56% lactic acid; previously published; cited from earlier work
[10] = Multi-point microsome stability assay, rat; format: in vitro ADME; conditions: male, Sprague Dawley, rat microsomal fractions, pH 7.4
[11] = Multi-point cytosol stability assay, rat; format: in vitro ADME; conditions: rat cytosol fractions, pH 7.4
[12] = biological target: human μ-opioid receptor (OPRM1) (Homo sapiens, UniProt P35372); assay: cell-based
[13] = biological target: T4, KOR (mKOR-CHO) (Mus musculus, UniProt P33534); assay: [35S]GTPγS functional assay, mKOR-CHO membranes; format: biochemical; conditions: KOR-mediated [35S]GTPγS binding, up to 30 μM
[14] = biological target: T5, DOR (hDOR-CHO) (Homo sapiens, UniProt P41143); assay: [35S]GTPγS functional assay, hDOR-CHO membranes; format: biochemical
[15] = biological target: T2, human δ-opioid receptor (OPRD1); assay: Forskolin-induced cAMP accumulation assay, DOR agonist mode
[16] = biological target: T3, mouse mu opioid receptor (mMOR-CHO); assay: Competition radioligand binding assay, [3H]naloxone, mMOR-CHO membranes
[17] = tested on: mice; assay: Assay of pain-depressed locomotion in mice; format: in vivo, mouse
[18] = biological target: T1, human κ-opioid receptor (OPRK1); assay: Forskolin-induced cAMP accumulation assay, KOR agonist mode
[19] = biological target: T5, DOR (hDOR-CHO); assay: Competition radioligand binding assay, hDOR-CHO membranes; conditions: DOR Receptor binding Ki, CHO cell membranes expressing cloned DOR
[20] = biological target: T4, KOR (mKOR-CHO); assay: Competition radioligand binding assay, mKOR-CHO membranes
[21] = SC 30 min before 15 min session, significant increase, 12 mice per dose

C=C[C@H]1[C@H]2CCC[C@]1(c1cccc(O)c1)CCN2CCc1ccccc1 [DC-1–76.2, 3-((1R,5S,9R)-2-phenethyl-9-vinyl-2-azabicyclo[3.3.1]nonan-5-yl)phenol, reference compound]
solubility kinetic [1]: 34 µg/mL (≈ 97.8 µM)
half-life at 1 μM [2]: 12 min
KOR Antagonist %Imax ± SEM ([3]; versus EC90 of U50488H, normalized to nor-BNI): 97.1 ± 9.2%
half-life at 1 μM [4]: 4.7 min
half-life at 1 μM [5]: 80.7 min
DOR Antagonist %Imax ± SEM [6]: 119.1 ± 15.5%
half-life at 1 μM [7]: 71.9 min
GTPγS % Emax of (DAMGO) ([8]; MOR, % of maximal DAMGO stimulation): 29.09 ± 0.78%
effect on IP acid-induced depression of Crosses and Movement [9]: failed to alleviate IP acid-induced depression of Crosses but did alleviate IP acid-induced depression of Movement
half-life at 1 μM [10]: 6.9 min
half-life at 1 μM [11]: > 120 min

C=C[C@H]1[C@H]2CCC[C@]1(c1cccc(C(N)=O)c1)CCN2CCc1ccccc1 [compound 5, 3-((1R,5S,9R)-2-Phenethyl-9-vinyl-2-azabicyclo[3.3.1]nonan-5-yl)benzamide]
solubility kinetic [1]: 5.1 µg/mL (≈ 13.6 µM)
EC50 [12]: 5.28 nM
Emax ([12]; OPRM1, read-out: MOR Agonist %Emax ± SEM): 75.1%
KOR GTPγS % Emax of (DAMGO) [13]: did not stimulate; also recorded: No Stim
EC50 [14]: 1460 ± 594 nM
Emax ([14]; read-out: DOR GTPγS % Emax of (DAMGO)): -6.98 ± 1.21%
EC50 [15]: 6.01 ± 4.97 nM
Emax ([15]; read-out: DOR Agonist %Emax ± SEM): 25.2%
Ki [16]: 1.24 ± 0.17 nM
half-life at 1 μM [2]: 40.4 min
IC50 [3]: > 10000 nM
half-life at 1 μM [4]: 16.7 min
half-life at 1 μM [5]: > 120 min
IC50 [6]: 498 ± 208 nM
DOR Antagonist %Imax ± SEM [6]: 117.6 ± 8.0%
half-life at 1 μM [7]: > 120 min
EC50 [8]: 23.3 ± 6.45 nM
Emax ([8]; read-out: GTPγS % Emax of (DAMGO), MOR, % of maximal DAMGO stimulation): 15.4 ± 1.8%
half-life at 1 μM [10]: 3.2 min
half-life at 1 μM [11]: > 120 min
Crosses, drug administered alone: dose different from Vehicle [17, 21]: 18 mg/kg
Movement, drug administered alone: doses different from Vehicle [17, 21]: 10 to 18 mg/kg
antinociceptive attenuation of IP acid-induced depression of Crosses: dose different from Vehicle+IP acid ([17]; SC pretreatment to IP 0.56% lactic acid): 18 mg/kg
EC50 [18]: > 10000 nM
Ki [19]: 237 nM
Ki [20]: 48.7 ± 7.06 nM
